Reference: patent publication US20250034147A1, “MDM2 DEGRADERS AND USES THEREOF” (Kymera Therapeutics, Inc., priority 2021, published 2025)

Target: T1, HiBiT-tagged MDM2 (Homo sapiens, UniProt Q00987)
T1 construct: expressed in transfected cells
Experiment: MDM2 HiBit HEK293T degradation
Format: cell-based
Settings: HEK293T cells stably expressing C-terminally HiBiT-tagged MDM2; 4 h; read-out: MDM2 HiBit HEK293T degradation 4 h: Average external-Abs DC50
Description: HEK293T cells were grown overnight to 70-80% confluency in a 6-well plate in complete media (DMEM 10% FBS) in a 37° C. incubator with 5% CO2. Cells were transfected with 1 micrograms of C- or N-terminally HiBiT-tagged MDM2 constructs using Fugene 6 transfection reagent (Promega) as per manufacturer protocol. After overnight incubation at 37° C., growth media within the wells was replaced with selection media (DMEM+10% FBS+1 microgram/ml final concentration of Puromycin). Puromycin (selection antibiotic) concentrations required for complete cell kill were determined previously. Cells were monitored for the next 48h-96h to select for positively transfected cells. Surviving colonies were pooled and expanded in selection media. Expanded pools of HEK293T cells stably expressing C- and N-terminally HiBiT-tagged MDM2, were characterized using a MDM2 tool degrader and HaloPROTAC3 as positive control. HEK293T cells expressing C-terminally HiBiT-tagged MDM2 were subsequently used for assessment of degradation potencies for MDM2 degraders.
The letter codes for MDM2 degradation potency (DC50) include: A (<10 nM), B […], C (>100-1000 nM), and D (>1000 nM).

T1 sequence (Q00987 whole entry): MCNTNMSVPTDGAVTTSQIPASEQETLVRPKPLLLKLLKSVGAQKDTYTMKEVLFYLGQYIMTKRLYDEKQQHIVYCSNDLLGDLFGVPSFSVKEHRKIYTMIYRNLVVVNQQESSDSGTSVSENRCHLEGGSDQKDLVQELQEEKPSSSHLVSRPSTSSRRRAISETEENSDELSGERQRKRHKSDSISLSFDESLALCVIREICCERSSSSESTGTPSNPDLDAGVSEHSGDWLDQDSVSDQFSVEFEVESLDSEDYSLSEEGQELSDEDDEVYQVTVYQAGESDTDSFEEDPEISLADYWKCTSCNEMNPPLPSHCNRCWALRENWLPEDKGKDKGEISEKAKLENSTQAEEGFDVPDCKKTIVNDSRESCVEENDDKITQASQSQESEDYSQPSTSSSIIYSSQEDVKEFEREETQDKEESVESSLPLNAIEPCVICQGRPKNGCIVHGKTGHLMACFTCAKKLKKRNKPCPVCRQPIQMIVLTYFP

Row | Compound | DC50
1 | C[C@H]1CN(C(=O)[C@H]2CC[C@H](NC(=O)[C@@H]3NC4(CCCCC4)[C@@]4(C(=O)Nc5cc(Cl)ccc54)[C@H]3c3cccc(Cl)c3F)CC2)CCN1CCc1ccc2c(c1)n(C)c(=O)n2C1CCC(=O)NC1=O (stereo partly shown) [I-121] | < 10 nM
2 | C[C@@H]1CN(C(=O)[C@H]2CC[C@H](NC(=O)[C@@H]3NC4(CCCCC4)[C@@]4(C(=O)Nc5cc(Cl)ccc54)[C@H]3c3cccc(Cl)c3F)CC2)CCN1CCc1ccc2c(c1)n(C)c(=O)n2C1CCC(=O)NC1=O (stereo partly shown) [I-122] | < 10 nM
3 | Cn1c(=O)n(C2CCC(=O)NC2=O)c2ccc(C3CC4(C3)CN(C[C@H]3CC[C@H](NC(=O)[C@@H]5NC6(CCCCC6)[C@@]6(C(=O)Nc7cc(Cl)ccc76)[C@H]5c5cccc(Cl)c5F)CC3)C4)cc21 (stereo partly shown) [I-123] | < 10 nM
4 | Cn1c(=O)n(C2CCC(=O)NC2=O)c2ccc(N3CCN(C(=O)CN4CCC(NC(=O)[C@@H]5NC6(CCCCC6)[C@@]6(C(=O)Nc7cc(Cl)ccc76)[C@H]5c5cccc(Cl)c5F)CC4)CC3)cc21 (stereo partly shown) [I-125] | < 10 nM
5 | CN(C(=O)[C@H]1CC[C@H](NC(=O)[C@@H]2NC3(CCCCC3)[C@@]3(C(=O)Nc4cc(Cl)ccc43)[C@H]2c2cccc(Cl)c2F)CC1)C1CCN(Cc2ccc3c(c2)n(C)c(=O)n3C2CCC(=O)NC2=O)CC1 (stereo partly shown) [I-127] | < 10 nM
6 | Cn1c(=O)n(C2CCC(=O)NC2=O)c2ccc([C@H]3CC[C@H](CN4CCC(NC(=O)[C@@H]5NC6(CCCCC6)[C@@]6(C(=O)Nc7cc(Cl)ccc76)[C@H]5c5cccc(Cl)c5F)CC4)CC3)cc21 (stereo partly shown) [I-130] | < 10 nM
7 | Cn1c(=O)n(C2CCC(=O)NC2=O)c2ccc(CC3(C(=O)O)CCN(C(=O)[C@H]4CC[C@H](NC(=O)[C@@H]5NC6(CCCCC6)[C@@]6(C(=O)Nc7cc(Cl)ccc76)[C@H]5c5cccc(Cl)c5F)CC4)CC3)cc21 (stereo partly shown) [I-131] | 100 to 1000 nM
8 | Cn1c(=O)n(C2CCC(=O)NC2=O)c2ccc(CCCC3(CC(=O)O)CCN(C(=O)[C@H]4CC[C@H](NC(=O)[C@@H]5NC6(CCCCC6)[C@@]6(C(=O)Nc7cc(Cl)ccc76)[C@H]5c5cccc(Cl)c5F)CC4)CC3)cc21 (stereo partly shown) [I-132] | 100 to 1000 nM
9 | Cn1c(=O)n(C2CCC(=O)NC2=O)c2ccc(CCCN3CCN(C(=O)[C@@H]4CC[C@@H](NC(=O)[C@@H]5NC6(CCCCC6)[C@@]6(C(=O)Nc7cc(Cl)ccc76)[C@H]5c5cccc(Cl)c5F)CO4)CC3)cc21 (stereo partly shown) [I-133] | < 10 nM
10 | Cn1c(=O)n(C2CCC(=O)NC2=O)c2ccc(CCC(=O)N3CCN(C[C@H]4CC[C@H](NC(=O)[C@@H]5NC6(CCCCC6)[C@@]6(C(=O)Nc7cc(Cl)ccc76)[C@H]5c5cccc(Cl)c5F)CC4)CC3)cc21 (stereo partly shown) [I-134] | < 10 nM
11 | Cn1c(=O)n(C2CCC(=O)NC2=O)c2ccc(CN3CCN(C(=O)[C@H]4CC[C@H](NC(=O)[C@@H]5NC6(CCCCC6)[C@@]6(C(=O)Nc7cc(Cl)ccc76)[C@H]5c5cccc(Cl)c5F)CC4)C(C(=O)O)C3)cc21 (stereo partly shown) [I-135] | 100 to 1000 nM
12 | Cn1c(=O)n(C2CCC(=O)NC2=O)c2ccc(CCCO[C@@H]3C[C@@H](C(=O)O)N(C(=O)[C@H]4CC[C@H](NC(=O)[C@@H]5NC6(CCCCC6)[C@@]6(C(=O)Nc7cc(Cl)ccc76)[C@H]5c5cccc(Cl)c5F)CC4)C3)cc21 (stereo partly shown) [I-136] | 10 to 100 nM
13 | Cn1c(=O)n(C2CCC(=O)NC2=O)c2ccc([C@H]3CC[C@H](N4CCC(NC(=O)[C@@H]5NC6(CCCCC6)[C@@]6(C(=O)Nc7cc(Cl)ccc76)[C@H]5c5cccc(Cl)c5F)CC4)CC3)cc21 (stereo partly shown) [I-138] | < 10 nM
14 | Cn1c(=O)n(C2CCC(=O)NC2=O)c2ccc(N3CCC(N4CCC(NC(=O)[C@@H]5NC6(CCCCC6)[C@@]6(C(=O)Nc7cc(Cl)ccc76)[C@H]5c5cccc(Cl)c5F)CC4)CC3)cc21 (stereo partly shown) [I-139] | < 10 nM
15 | Cn1c(=O)n(C2CCC(=O)NC2=O)c2ccc(CCCO[C@@H]3C[C@H](C(=O)O)N(C(=O)[C@H]4CC[C@H](NC(=O)[C@@H]5NC6(CCCCC6)[C@@]6(C(=O)Nc7cc(Cl)ccc76)[C@H]5c5cccc(Cl)c5F)CC4)C3)cc21 (stereo partly shown) [I-141] | 100 to 1000 nM
16 | Cn1c(=O)n(C2CCC(=O)NC2=O)c2ccc(N3CCN(C(=O)[C@H]4CC[C@H](NC(=O)[C@@H]5NC6(CCCCC6)[C@@]6(C(=O)Nc7cc(Cl)ccc76)[C@H]5c5cccc(Cl)c5F)CC4)C(C(=O)O)C3)cc21 (stereo partly shown) [I-142] | 10 to 100 nM
